# Like-named read-outs stand apart in the source and are kept apart here.
# Key:
# I172A mutant TbbTIM [1] = biological target: T1, I172A mutant TbbTIM (Trypanosoma brucei brucei, UniProt P04789, I172A); test: TIM-catalyzed isomerization of DHAP and arsenate inhibition; assay type: biochemical; conditions: 30 mM TEA, pH 7.5, 25 °C, I = 0.1 (NaCl)
# I172V mutant TbbTIM [2] = biological target: T2, I172V mutant TbbTIM (Trypanosoma brucei brucei, UniProt P04789, I172V); test: as above; assay type: biochemical; conditions: 30 mM TEA, pH 7.5, 25 °C, I = 0.1 (NaCl)
# L232A mutant TbbTIM [3] = biological target: T3, L232A mutant TbbTIM (Trypanosoma brucei brucei, UniProt P04789, L232A); assay type: biochemical; conditions: for Fractional Product Yield fE: fraction of the three TIM-catalyzed products, 5 mM GAP, 3.4 nM L232A, D2O
# I172A mutant TbbTIM [4] = biological target: T1, I172A mutant TbbTIM; assay type: biochemical; conditions: for Fractional Product Yield fE: fraction of the three TIM-catalyzed products, 5 mM GAP, 65 nM I172A, D2O
# wildtype TbbTIM [5] = conditions: cited from earlier work
# L232A mutant TbbTIM [6] = biological target: T3, L232A mutant TbbTIM; conditions: 30 mM TEA, pH 7.5, 25 °C, I = 0.1 (NaCl), cited from earlier work
# WT chicken TIM [7] = conditions: cited from earlier work
# E165D chicken TIM [8] = conditions: cited from earlier work
# E165D/S96P chicken TIM [9] = conditions: cited from earlier work
# I172V mutant TbbTIM [10] = biological target: T2, I172V mutant TbbTIM; test: Reaction of [1-13C]-GA in D2O with and without phosphite dianion, 1H NMR; assay type: biochemical; conditions: for Average product yield (mole fraction), phosphite dianion-activated reaction / Fractional yield from reaction at the enzyme active site: 20 mM [1-13C]-GA, D2O; for Average product yield (mole fraction), phosphite dianion-activated reaction: pD 7.0, I = 0.1, 25 °C, average over [HPO3^2-]; for Fractional yield from reaction at the enzyme active site: value in parenthesis, [HPO3^2-] 0 mM, pD 7.0, 25 °C
# I172A mutant TbbTIM [11] = biological target: T1, I172A mutant TbbTIM; test: as above; assay type: biochemical; conditions: for Average product yield (mole fraction), phosphite dianion-activated reaction: 20 mM [1-13C]-GA, D2O, pD 7.0, I = 0.1, 25 °C, average over [HPO3^2-]
# L232A mutant TbbTIM [12] = biological target: T3, L232A mutant TbbTIM; test: as above; assay type: biochemical; conditions: for Average product yield (mole fraction), phosphite dianion-activated reaction: 20 mM [1-13C]-GA, D2O, pD 7.0, I = 0.1, 25 °C, average over [HPO3^2-]
# I172A mutant TbbTIM [13] = biological target: T1, I172A mutant TbbTIM; test: TIM-catalyzed isomerization of GAP; assay type: biochemical; conditions: 30 mM TEA, pH 7.5, 25 °C, I = 0.1 (NaCl)
# I172V mutant TbbTIM [14] = biological target: T2, I172V mutant TbbTIM; test: TIM-catalyzed isomerization of GAP; assay type: biochemical; conditions: 30 mM TEA, pH 7.5, 25 °C, I = 0.1 (NaCl)
# wildtype TbbTIM [15] = assay type: biochemical, Trypanosoma brucei brucei; conditions: reaction of GAP in D2O, pD 7.9, 25 °C; from product yields
# wildtype TbbTIM [16] = conditions: 30 mM TEA, pH 7.5, 25 °C, I = 0.1 (NaCl), cited from earlier work
# L232A mutant TbbTIM [17] = biological target: T3, L232A mutant TbbTIM; conditions: 30 mM TEA, pH 7.5, 25 °C, I = 0.1 (NaCl), cited from earlier work; remark: listed apart in the source
# WT chicken TIM [18] = conditions: cited from earlier work; remark: listed apart in the source
# E165D chicken TIM [19] = conditions: cited from earlier work; remark: listed apart in the source
# E165D/S96P chicken TIM [20] = conditions: cited from earlier work; remark: listed apart in the source
# [21] = isomerization of GAP in D2O with intramolecular transfer of hydrogen
# [22] = unactivated reaction of [1-13C]-GA in D2O (no HPO3^2-)
# [23] = reaction of GAP in D2O, pD 7.9, 25 °C, from product yields
# [24] = read-out: Ki (arsenate), inhibition of DHAP isomerization
# [25] = isomerization of [1-13C]-GA in D2O
smiles,measurement,setting,value
"O=C(CO)COP(=O)(O)O [DHAP, dihydroxyacetone phosphate]",kcat (DHAP),I172A mutant TbbTIM [1],17 s⁻¹
same,Km,I172A mutant TbbTIM [1]; read-out: Km (DHAP),3700 µM
same,kcat (DHAP),I172V mutant TbbTIM [2],65 s⁻¹
same,Km,I172V mutant TbbTIM [2]; read-out: Km (DHAP),200 µM
same,Fractional Product Yield fE,"L232A mutant TbbTIM [3]; pD 7.9, 25 °C",0.041
same,yield of product,L232A mutant TbbTIM [3]; [21],4%
same,Fractional Product Yield fE,"I172A mutant TbbTIM [4]; pD 7.9, 25 °C",0.13
same,yield of product,I172A mutant TbbTIM [4]; [21],13%
same,kcat (DHAP),"wildtype TbbTIM [5]; 30 mM TEA, pH 7.5, 25 °C, I = 0.1 (NaCl)",300 s⁻¹
same,Km,"wildtype TbbTIM [5]; read-out: Km (DHAP), 30 mM TEA, pH 7.5, 25 °C, I = 0.1 (NaCl)",700 µM
same,kcat (DHAP),L232A mutant TbbTIM [6],4.7 s⁻¹
same,Km,L232A mutant TbbTIM [6]; read-out: Km (DHAP),77 µM
same,kcat (DHAP),WT chicken TIM [7],600 s⁻¹
same,Km,WT chicken TIM [7]; read-out: Km (DHAP),650 µM
same,kcat (DHAP),E165D chicken TIM [8],4.1 s⁻¹
same,Km,E165D chicken TIM [8]; read-out: Km (DHAP),1200 µM
same,kcat (DHAP),E165D/S96P chicken TIM [9],3.4 s⁻¹
same,Km,E165D/S96P chicken TIM [9]; read-out: Km (DHAP),53 µM
"[2H]C([2H])(O)[13CH]=O [[1-^13C, 2,2-di-^2H]-GA]",yield of product,I172V mutant TbbTIM [10]; reaction of [1-13C]-GA in D2O in the absence of HPO3^2-,25%
same,yield of product,I172A mutant TbbTIM [11]; [22],38%
"[2H]C(O)[13CH]=O (stereo not drawn) [[1-^13C, 2-^2H]-GA]","Average product yield (mole fraction), phosphite dianion-activated reaction",L232A mutant TbbTIM [12],0.51 ± 0.02
same,"Average product yield (mole fraction), phosphite dianion-activated reaction",I172V mutant TbbTIM [10],0.24 ± 0.02
same,Fractional yield from reaction at the enzyme active site,I172V mutant TbbTIM [10],0.55
same,"Average product yield (mole fraction), phosphite dianion-activated reaction",I172A mutant TbbTIM [11],0.30 ± 0.02
same,yield of product,I172A mutant TbbTIM [11]; [22],15%
"O=C[C@H](O)COP(=O)(O)O [GAP, R-glyceraldehyde 3-phosphate]",kcat (GAP),I172A mutant TbbTIM [13],12 s⁻¹
same,Km,I172A mutant TbbTIM [13]; read-out: Km (GAP),150 µM
same,kcat (GAP),I172V mutant TbbTIM [14],225 s⁻¹
same,Km,I172V mutant TbbTIM [14]; read-out: Km (GAP),58 µM
same,Rate Constant Ratio (kC1)D/(kC2)D,L232A mutant TbbTIM [3]; [23],8.8
same,Rate Constant Ratio kex/(kC1)H,L232A mutant TbbTIM [3]; [23],23
same,Rate Constant Ratio (kC1)D/(kC2)D,I172A mutant TbbTIM [4]; [23],0.74
same,Rate Constant Ratio kex/(kC1)H,I172A mutant TbbTIM [4]; [23],6.7
same,Rate Constant Ratio (kC1)D/(kC2)D,wildtype TbbTIM [15],1.7
same,Rate Constant Ratio kex/(kC1)H,wildtype TbbTIM [15],1.5
same,kcat (GAP),wildtype TbbTIM [16],2100 s⁻¹
same,Km,wildtype TbbTIM [16]; read-out: Km (GAP),250 µM
same,kcat (GAP),L232A mutant TbbTIM [17],220 s⁻¹
same,Km,L232A mutant TbbTIM [17]; read-out: Km (GAP),140 µM
same,kcat (GAP),WT chicken TIM [18],8300 s⁻¹
same,Km,WT chicken TIM [18]; read-out: Km (GAP),420 µM
same,kcat (GAP),E165D chicken TIM [19],4.2 s⁻¹
same,Km,E165D chicken TIM [19]; read-out: Km (GAP),78 µM
same,kcat (GAP),E165D/S96P chicken TIM [20],68 s⁻¹
same,Km,E165D/S96P chicken TIM [20]; read-out: Km (GAP),66 µM
[2H]C(O)C(=O)COP(=O)(O)O (stereo not drawn) [d-DHAP],Fractional Product Yield fE,"L232A mutant TbbTIM [3]; pD 7.9, 25 °C",0.86
same,Fractional Product Yield fE,"I172A mutant TbbTIM [4]; pD 7.9, 25 °C",0.37
"[2H][13CH](O)C=O (stereo not drawn) [[2-^13C, 2-^2H]-GA]","Average product yield (mole fraction), phosphite dianion-activated reaction",L232A mutant TbbTIM [12],0.48 ± 0.02
same,"Average product yield (mole fraction), phosphite dianion-activated reaction",I172V mutant TbbTIM [10],0.63 ± 0.01
same,Fractional yield from reaction at the enzyme active site,I172V mutant TbbTIM [10],0.40
same,"Average product yield (mole fraction), phosphite dianion-activated reaction",I172A mutant TbbTIM [11],0.25 ± 0.02
O=C[C@H](O)COP(=O)(O)O [d-GAP],Fractional Product Yield fE,"L232A mutant TbbTIM [3]; pD 7.9, 25 °C",0.098
same,Fractional Product Yield fE,"I172A mutant TbbTIM [4]; pD 7.9, 25 °C",0.50
"O=[As](O)(O)O [arsenate, arsenate dianion, reference compound]",Ki,"wildtype TbbTIM [5]; read-out: Ki (competitive inhibitor), arsenate dianion, competitive",4.6 mM
same,Ki,WT chicken TIM [7]; [24],11 mM
same,Ki,E165D chicken TIM [8]; [24],12 mM
same,Ki,E165D/S96P chicken TIM [9]; [24],2.1 mM
O=C[13CH2]O [[2-^13C]-GA],"Average product yield (mole fraction), phosphite dianion-activated reaction",L232A mutant TbbTIM [12],0.01 ± 0.001
same,yield of product,L232A mutant TbbTIM [12]; [25],1%
same,"Average product yield (mole fraction), phosphite dianion-activated reaction",I172V mutant TbbTIM [10],0.13 ± 0.01
same,Fractional yield from reaction at the enzyme active site,I172V mutant TbbTIM [10],0.04
same,"Average product yield (mole fraction), phosphite dianion-activated reaction",I172A mutant TbbTIM [11],0.02 ± 0.001
same,yield of product,I172A mutant TbbTIM [11]; [25],2%

# From publication PMC3380172 (Journal of the American Chemical Society, 2012)
